Reference: PubChem BioAssay AID256 (DTP/NCI, 2004)
Several values for one entry are separate records, joined by “and”; a condition that tells them apart may be missing. Equal entries are not always repeated. Inconclusive results and toxic doses are left out.

Test system: CD2F1 mice, L1210 leukemia ip, survival T/C
Assay: NCI In Vivo Anticancer Drug Screen. Data for tumor model L1210 Leukemia (intraperitoneal) in CD2F1 (CDF1) mice
Conditions: higher = longer survival
Procedure, shortened: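 In this screen, transplantable tumors were grown in mice given either the compound or its vehicle. Results were expressed as the treated measurement relative to the control measurement.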

[1] = endpoint: mean survival time, dose: 100.0 mg/kg/injection, schedule: Q04DX003 (ip), vehicle: saline with Tween-80
[2] = endpoint: mean survival time, dose: 200.0 mg/kg/injection, schedule: Q04DX003 (ip), vehicle: saline with Tween-80
[3] = endpoint: mean survival time, dose: 400.0 mg/kg/injection, schedule: Q04DX003 (ip), vehicle: saline with Tween-80
[4] = endpoint: mean survival time, dose: 75.0 mg/kg/injection, schedule: Q01DX001 (ip), vehicle: saline
[5] = endpoint: mean survival time, dose: 300.0 mg/kg/injection, schedule: Q01DX001 (ip), vehicle: saline
[6] = endpoint: mean survival time, dose: 100.0 mg/kg/injection, schedule: Q01DX009 (ip), vehicle: saline with Tween-80
[7] = endpoint: mean survival time, dose: 200.0 mg/kg/injection, schedule: Q01DX009 (ip), vehicle: saline with Tween-80
[8] = endpoint: mean survival time, dose: 400.0 mg/kg/injection, schedule: Q01DX009 (ip), vehicle: saline with Tween-80
[9] = endpoint: mean survival time, dose: 100.0 mg/kg/injection, schedule: Q01DX001 (ip), vehicle: saline
[10] = endpoint: mean survival time, dose: 200.0 mg/kg/injection, schedule: Q01DX001 (ip), vehicle: saline
[11] = endpoint: mean survival time, dose: 100.0 mg/kg/injection, schedule: Q01DX001 (ip), vehicle: saline with Tween-80
[12] = endpoint: mean survival time, dose: 200.0 mg/kg/injection, schedule: Q01DX001 (ip), vehicle: saline with Tween-80

COc1cccc2c1C(=O)c1c(O)c3c(c(O)c1C2=O)C[C@@](O)(C(C)O)C[C@@H]3OC1CC(N)C(O)C(C)O1 (some centres undefined)
T/C (endpoint: mean survival time, dose: 0.65 mg/kg/injection, schedule: Q01DX009 (ip), vehicle: saline): 112 % of control | T/C (endpoint: mean survival time, dose: 1.08 mg/kg/injection, schedule: Q01DX009 (ip), vehicle: saline): 113 % of control | T/C (endpoint: mean survival time, dose: 3.0 mg/kg/injection, schedule: Q04DX003 (ip), vehicle: saline): 120 % of control | T/C (endpoint: mean survival time, dose: 13.3 mg/kg/injection, schedule: Q01DX009 (ip), vehicle: saline): 96 % of control

Oc1cc(N2CC2)c(O)cc1N1CC1
T/C (endpoint: mean survival time, dose: 0.07 mg/kg/injection, schedule: Q01DX009 (ip), vehicle: saline): 111 % of control | T/C (endpoint: mean survival time, dose: 0.15 mg/kg/injection, schedule: Q01DX009 (ip), vehicle: saline): 116 % of control

CC(=O)OC(C(=O)N(c1ccccc1)c1ccccc1)c1ccccc1 (centres undefined)
T/C [1]: 100 % of control | T/C [2]: 94 % of control | T/C [3]: 108 % of control

OCC1OC(Oc2ccccc2)C(O)C1O (centres undefined)
T/C [4]: 93 % of control | T/C (endpoint: mean survival time, dose: 150.0 mg/kg/injection, schedule: Q01DX001 (ip), vehicle: saline): 98 % of control | T/C [5]: 98 % of control

CC(C)(C)[N+](Cc1ccccc1)(Cc1ccccc1)Cc1ccccc1
T/C [6]: 104 % of control | T/C [7]: 96 % of control | T/C [8]: 98 % of control

O=C(COc1ccccc1)Nc1ccc([N+](=O)[O-])cc1
T/C [1]: 100 % of control | T/C [2]: 99 % of control | T/C [3]: 100 % of control

Cc1cccc(N2CCN(CCO)CC2)c1
T/C (endpoint: mean survival time, dose: 12.5 mg/kg/injection, schedule: Q01DX009 (ip), vehicle: saline): 109 % of control | T/C (endpoint: mean survival time, dose: 25.0 mg/kg/injection, schedule: Q01DX009 (ip), vehicle: saline): 102 % of control | T/C (endpoint: mean survival time, dose: 50.0 mg/kg/injection, schedule: Q01DX009 (ip), vehicle: saline): 100 % of control

O=S(=O)(O)Sc1ncnc2nc[nH]c12
T/C (endpoint: mean survival time, dose: 10.0 mg/kg/injection, schedule: Q01DX009 (ip), vehicle: saline): 117 % of control | T/C (endpoint: mean survival time, dose: 20.0 mg/kg/injection, schedule: Q01DX009 (ip), vehicle: saline): 112 % of control | T/C (endpoint: mean survival time, dose: 320.0 mg/kg/injection, schedule: Q01DX009 (ip), vehicle: saline): 107 % of control | T/C (endpoint: median survival time, dose: 37.5 mg/kg/injection, schedule: Q04DX003 (ip), vehicle: saline): 119 % of control | T/C (endpoint: median survival time, dose: 100.0 mg/kg/injection, schedule: Q01DX009 (ip), vehicle: saline): 182 % of control | T/C (endpoint: median survival time, dose: 200.0 mg/kg/injection, schedule: Q01DX009 (ip), vehicle: saline): 154 % of control | T/C (endpoint: median survival time, dose: 300.0 mg/kg/injection, schedule: Q04DX003 (ip), vehicle: saline): 166 % of control

CC(C(=O)O)=C(c1ccccc1)c1ccccc1
T/C [1]: 90 % of control | T/C [2]: 93 % of control | T/C [3]: 87 % of control

CC(Oc1ccccc1)C(=O)c1ccccc1 (centres undefined)
T/C [6]: 93 % of control | T/C [1]: 97 % of control | T/C [7]: 93 % of control | T/C [2]: 100 % of control | T/C [8]: 96 % of control | T/C [3]: 90 % of control

O=CC(O)C(O)C(O)C(O)C(O)CO (centres undefined)
T/C [9]: 94 % of control | T/C [10]: 103 % of control | T/C (endpoint: mean survival time, dose: 400.0 mg/kg/injection, schedule: Q01DX001 (ip), vehicle: saline): 97 % of control

COC(=O)C(Br)c1ccccc1 (centres undefined)
T/C [11]: 108 % of control | T/C [12]: 91 % of control | T/C (endpoint: mean survival time, dose: 400.0 mg/kg/injection, schedule: Q01DX001 (ip), vehicle: saline with Tween-80): 97 % of control

CNC(=S)SC
T/C (endpoint: mean survival time, dose: 50.0 mg/kg/injection, schedule: Q01DX001 (ip), vehicle: saline): 98 % of control | T/C [9]: 102 % of control | T/C [10]: 104 % of control

COc1cc2c(c(OC)c1OC)-c1ccc(SC)c(=O)cc1[C@@H](NC(=O)NCCCl)CC2
T/C (endpoint: mean survival time, dose: 1.56 mg/kg/injection, schedule: Q01DX005 (ip), vehicle: water): 103 % of control | T/C (endpoint: mean survival time, dose: 3.13 mg/kg/injection, schedule: Q01DX005 (ip), vehicle: water): 103 % of control | T/C (endpoint: mean survival time, dose: 6.25 mg/kg/injection, schedule: Q01DX005 (ip), vehicle: water): 122 % of control | T/C (endpoint: mean survival time, dose: 6.25 mg/kg/injection, schedule: Q01DX009 (ip), vehicle: water): 123 % of control | T/C (endpoint: mean survival time, dose: 12.5 mg/kg/injection, schedule: Q01DX005 (ip), vehicle: water): 117 % of control | T/C (endpoint: mean survival time, dose: 12.5 mg/kg/injection, schedule: Q01DX009 (ip), vehicle: water): 123 % of control

Nc1nc(CCCCc2ccccc2)cc(=O)[nH]1
T/C [1]: 93 % of control | T/C [2]: 89 % of control | T/C [3]: 91 % of control

CCSC(C(O)C(O)C(O)C(O)CO)n1cnc2c(=S)nc[nH]c21 (centres undefined)
T/C (endpoint: mean survival time, dose: 25.0 mg/kg/injection, schedule: Q01DX005 (ip), vehicle: water): 94 % of control | T/C (endpoint: mean survival time, dose: 50.0 mg/kg/injection, schedule: Q01DX005 (ip), vehicle: water): 97 % of control | T/C (endpoint: mean survival time, dose: 100.0 mg/kg/injection, schedule: Q01DX005 (ip), vehicle: water): 96 % of control | T/C (endpoint: mean survival time, dose: 177.0 mg/kg/injection, schedule: Q01DX009 (ip), vehicle: saline with Tween-80): 107 % of control | T/C (endpoint: mean survival time, dose: 200.0 mg/kg/injection, schedule: Q01DX005 (ip), vehicle: water): 96 % of control | T/C (endpoint: mean survival time, dose: 265.0 mg/kg/injection, schedule: Q01DX009 (ip), vehicle: saline with Tween-80): 102 % of control | T/C (endpoint: mean survival time, dose: 600.0 mg/kg/injection, schedule: Q01DX009 (ip), vehicle: saline with Tween-80): 150 % of control

CC(=O)Oc1ccc2ncccc2c1Cc1c(OC(C)=O)ccc2ncccc12
T/C [4]: 90 % of control | T/C [5]: 91 % of control

O=Cc1c2c(cc3ccccc13)Nc1ccccc1N2
T/C (endpoint: mean survival time, dose: 100.0 mg/kg/injection, schedule: Q04DX002 (ip), vehicle: saline + alcohol): 89 % of control | T/C (endpoint: mean survival time, dose: 200.0 mg/kg/injection, schedule: Q04DX002 (ip), vehicle: saline + alcohol): 89 % of control | T/C (endpoint: mean survival time, dose: 400.0 mg/kg/injection, schedule: Q04DX002 (ip), vehicle: saline + alcohol): 86 % of control

CC(O)CNc1nc(N)[nH]c(=O)c1[N+](=O)[O-] (centres undefined)
T/C [11]: 94 % of control | T/C [12]: 89 % of control

NC(=O)c1[nH]nc(C2OC(CO)C(O)C2O)c1O (centres undefined)
T/C (endpoint: mean survival time, dose: 0.25 mg/kg/injection, schedule: Q04DX003 (ip), vehicle: saline): 105 % of control | T/C (endpoint: mean survival time, dose: 0.5 mg/kg/injection, schedule: Q04DX003 (ip), vehicle: saline): 97 % of control | T/C (endpoint: mean survival time, dose: 1.0 mg/kg/injection, schedule: Q04DX003 (ip), vehicle: saline): 96 % of control | T/C (endpoint: mean survival time, dose: 2.0 mg/kg/injection, schedule: Q04DX003 (ip), vehicle: saline): 97 % of control | T/C (endpoint: median survival time, dose: 0.25 mg/kg/injection, schedule: Q01DX009 (ip), vehicle: saline): 98 % of control | T/C (endpoint: median survival time, dose: 0.5 mg/kg/injection, schedule: Q01DX009 (ip), vehicle: saline): 111 % of control | T/C (endpoint: median survival time, dose: 1.0 mg/kg/injection, schedule: Q01DX009 (ip), vehicle: saline): 121 % of control | T/C (endpoint: median survival time, dose: 1.0 mg/kg/injection, schedule: Q04DX003 (ip), vehicle: saline): 102 % of control | T/C (endpoint: median survival time, dose: 1.88 mg/kg/injection, schedule: Q04DX003 (ip), vehicle: saline): 117 % of control | T/C (endpoint: median survival time, dose: 2.0 mg/kg/injection, schedule: Q01DX009 (ip), vehicle: saline): 120 % of control | T/C (endpoint: median survival time, dose: 3.75 mg/kg/injection, schedule: Q04DX003 (ip), vehicle: saline): 110 % of control | T/C (endpoint: median survival time, dose: 4.0 mg/kg/injection, schedule: Q01DX009 (ip), vehicle: saline): 110 % of control | T/C (endpoint: median survival time, dose: 7.5 mg/kg/injection, schedule: Q04DX003 (ip), vehicle: saline): 116 % of control | T/C (endpoint: median survival time, dose: 8.0 mg/kg/injection, schedule: Q01DX009 (ip), vehicle: saline): 88 % of control | T/C (endpoint: median survival time, dose: 8.0 mg/kg/injection, schedule: Q04DX003 (ip), vehicle: saline): 117 % of control and 120 % of control | T/C (endpoint: median survival time, dose: 15.0 mg/kg/injection, schedule: Q04DX003 (ip), vehicle: saline): 118 % of control | T/C (endpoint: median survival time, dose: 16.0 mg/kg/injection, schedule: Q01DX009 (ip), vehicle: saline): 101 % of control | T/C (endpoint: median survival time, dose: 16.0 mg/kg/injection, schedule: Q04DX003 (ip), vehicle: saline): 111 % of control | T/C (endpoint: median survival time, dose: 30.0 mg/kg/injection, schedule: Q04DX003 (ip), vehicle: saline): 97 % of control | T/C (endpoint: median survival time, dose: 32.0 mg/kg/injection, schedule: Q04DX003 (ip), vehicle: saline): 118 % of control

COc1c(C)ccc([N+](=O)[O-])c1OC
T/C [6]: 97 % of control | T/C [7]: 98 % of control | T/C [8]: 98 % of control

CC(C)NCC1CC2c3cccc4[nH]cc(c34)CC2N(C)C1 (centres undefined)
T/C (endpoint: median survival time, dose: 25.0 mg/kg/injection, schedule: Q04DX003 (ip), vehicle: saline with Tween-80): 100 % of control | T/C (endpoint: median survival time, dose: 50.0 mg/kg/injection, schedule: Q04DX003 (ip), vehicle: saline with Tween-80): 111 % of control
